# Test: recombinant UMI read abundance after kanamycin selection (control-corrected) (log10(CPM+1)); higher = more efficient recombination; extreme values may be limits of the assay; sequences stand for … in AGTGCAGAGAAAATCGGCCAGTTTTCTCTGCCTGCAGTCCGCATGCCGTGGGACCCCTTGGGTTCTAACCTGTTGCCTAGATTTATGCAGCGGACTGCCTTTCTCCCAAAGTGATAAACCGG…AGGTTGGTTTCACT; site = the 11-nt donor
# How it was run: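 In a pooled Escherichia coli screen for the IS621 bridge recombinase, donor and donor-binding-loop pairs were each placed with a 12-nt UMI on a plasmid bearing a promoterless kanamycin gene. This library was co-electroporated with a target plasmid encoding a fixed target and T7-inducible recombinase, and cells were plated either on IPTG (0.07 mM) plus kanamycin or without selection, in two replicates each. Recombinant UMIs were PCR-amplified across the donor–target junction and sequenced, and counts were converted to CPM, averaged over replicates, scaled by control-derived factors and reported as log10(CPM+1).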
row,Sequence,recombinant UMI read abundance (log10)
1,TCGACTCCATGGACCGGTTTTCCCGGTAATCCGTATTTGTC (site TCGACTCCTGA),0
2,TCGAGTCCATGGACCGGTTTTCCCGGTAATCCGTATTTGAA (site TCGAGTCCTTT),0.307
3,TCGCCTGCATGGACCGGTTTTCCCGGTAATCCGTATTTGGT (site TCGCCTGCTAC),0.0077
4,TCGCTCCCATGGACCGGTTTTCCCGGTAATCCGTATTTGAA (site TCGCTCCCTTT),0.0848
5,TCGGAAACATGGACCGGTTTTCCCGGTAATCCGTATTTGGT (site TCGGAAACTAC),0.88
6,TCGGAACCATGGACCGGTTTTCCCGGTAATCCGTATTTGTA (site TCGGAACCTTA),0
7,TCGGAATCATGGACCGGTTTTCCCGGTAATCCGTATTTGCG (site TAGGAATCTCG),0.861
8,TCGGAATCATGGACCGGTTTTCCCGGTAATCCGTATTTGCG (site TCGGAATCTCG),1.26
9,TCGGAATCATGGACCGGTTTTCCCGGTAATCCGTATTTGCG (site TGGGAATCTCG),0.211
10,TCGGAATCATGGACCGGTTTTCCCGGTAATCCGTATTTGCG (site TTGGAATCTCG),1.03
11,TCGGACCCATGGACCGGTTTTCCCGGTAATCCGTATTTGAA (site TCGGACCCTTT),0.274
12,TCGGACTCATGGACCGGTTTTCCCGGTAATCCGTATTTGTT (site TCGGACTCTAA),3.01
13,TCGGCCCCATGGACCGGTTTTCCCGGTAATCCGTATTTGTT (site TCGGCCCCTAA),0.0126
14,TCGGGAACATGGACCGGTTTTCCCGGTAATCCGTATTTGAT (site TCGGGAACTAT),1.61
15,TCGGTACCATGGACCGGTTTTCCCGGTAATCCGTATTTGCC (site TCGGTACCTGG),0
16,TCGGTATCATGGACCGGTTTTCCCGGTAATCCGTATTTGGT (site TCGGTATCTAC),1.89
17,TCGGTTGCATGGACCGGTTTTCCCGGTAATCCGTATTTGGC (site TCGGTTGCTGC),0.849
18,TCGTTTCCATGGACCGGTTTTCCCGGTAATCCGTATTTGTA (site TCGTTTCCTTA),1.36
19,TCTAACCCATGGACCGGTTTTCCCGGTAATCCGTATTTGCA (site TCTAACCCTTG),0

row,Sequence,recombinant UMI read abundance (log10)
1,TCTACACCATGGACCGGTTTTCCCGGTAATCCGTATTTGAC (site TATACACCTGT),0.00982
2,TCTACACCATGGACCGGTTTTCCCGGTAATCCGTATTTGAC (site TCTACACCTGT),0
3,TCTACACCATGGACCGGTTTTCCCGGTAATCCGTATTTGAC (site TGTACACCTGT),0
4,TCTACACCATGGACCGGTTTTCCCGGTAATCCGTATTTGAC (site TTTACACCTGT),0
5,TCTACGTCATGGACCGGTTTTCCCGGTAATCCGTATTTGTC (site TCTACGTCTGA),0
6,TCTACTGCATGGACCGGTTTTCCCGGTAATCCGTATTTGCC (site ACTACTGCTGG),0
7,TCTACTGCATGGACCGGTTTTCCCGGTAATCCGTATTTGCC (site CCTACTGCTGG),0
8,TCTACTGCATGGACCGGTTTTCCCGGTAATCCGTATTTGCC (site GCTACTGCTGG),0
9,TCTACTGCATGGACCGGTTTTCCCGGTAATCCGTATTTGCC (site TCTACTGCTGG),0
10,TCTAGATCATGGACCGGTTTTCCCGGTAATCCGTATTTGCA (site TCTAGATCTTG),0
11,TCTAGGTCATGGACCGGTTTTCCCGGTAATCCGTATTTGTT (site TCTAGGTCTAA),0
12,TCTAGTTCATGGACCGGTTTTCCCGGTAATCCGTATTTGTG (site TCTAGTTCTCA),0.0111
13,TCTATAACATGGACCGGTTTTCCCGGTAATCCGTATTTGCT (site TCTATAACTAG),0
14,TCTGAGCCATGGACCGGTTTTCCCGGTAATCCGTATTTGAT (site TCTGAGCCTAT),0.00231
15,TCTGAGCCATGGACCGGTTTTCCCGGTAATCCGTATTTGTT (site TCTGAGCCTAA),0.0283
16,TCTGCGGCATGGACCGGTTTTCCCGGTAATCCGTATTTGCT (site TATGCGGCTAG),0.0269
17,TCTGCGGCATGGACCGGTTTTCCCGGTAATCCGTATTTGCT (site TCTGCGGCTAG),0.246
18,TCTGCGGCATGGACCGGTTTTCCCGGTAATCCGTATTTGCT (site TGTGCGGCTAG),0.0168
19,TCTGCGGCATGGACCGGTTTTCCCGGTAATCCGTATTTGCT (site TTTGCGGCTAG),0.0104

row,Sequence,recombinant UMI read abundance (log10)
1,TCTGCTACATGGACCGGTTTTCCCGGTAATCCGTATTTGGT (site TCTGCTACTAC),0.0161
2,TCTGTGGCATGGACCGGTTTTCCCGGTAATCCGTATTTGCC (site TCTGTGGCTGG),0
3,TCTTAACCATGGACCGGTTTTCCCGGTAATCCGTATTTGTG (site TCTTAACCTCA),0.0128
4,TCTTACCCATGGACCGGTTTTCCCGGTAATCCGTATTTGCA (site TCTTACCCTTG),0
5,TCTTACGCATGGACCGGTTTTCCCGGTAATCCGTATTTGGC (site TCTTACGCTGC),0
6,TCTTCAACATGGACCGGTTTTCCCGGTAATCCGTATTTGTG (site TCTTCAACTCA),0.0171
7,TCTTCTACATGGACCGGTTTTCCCGGTAATCCGTATTTGAC (site TCTTCTACTGT),0
8,TCTTCTGCATGGACCGGTTTTCCCGGTAATCCGTATTTGAT (site TCTTCTGCTAT),0
9,TCTTTACCATGGACCGGTTTTCCCGGTAATCCGTATTTGGG (site TCTTTACCTCC),0.0231
10,TCTTTACCATGGACCGGTTTTCCCGGTAATCCGTATTTGTA (site TCTTTACCTTA),0.00582
11,TCTTTGGCATGGACCGGTTTTCCCGGTAATCCGTATTTGTG (site TATTTGGCTCA),0.0246
12,TCTTTGGCATGGACCGGTTTTCCCGGTAATCCGTATTTGTG (site TCTTTGGCTCA),0.0151
13,TCTTTGGCATGGACCGGTTTTCCCGGTAATCCGTATTTGTG (site TGTTTGGCTCA),0.0149
14,TCTTTGGCATGGACCGGTTTTCCCGGTAATCCGTATTTGTG (site TTTTTGGCTCA),0.0253
15,TGAAAATCATGGACCGGTTTTCCCGGTAATCCGTATTTGAT (site TGAAAATCTAT),0
16,TGAAAGACATGGACCGGTTTTCCCGGTAATCCGTATTTGCA (site AGGAAGACTTG),2.91
17,TGAAAGACATGGACCGGTTTTCCCGGTAATCCGTATTTGCA (site TGAAAGACTTG),2.45
18,TGAACACCATGGACCGGTTTTCCCGGTAATCCGTATTTGAC (site TGAACACCTGT),0
19,TGAACACCATGGACCGGTTTTCCCGGTAATCCGTATTTGAC (site TGCACACCTGT),0

# From the supplement of paper PMC11208160
